Test results published in patent US20170173002A1, “Compositions and Methods for Treating an Infection” (CMPD LICENSING, LLC, priority 2015, published 2017).

Columns and labels:
[1] = tested on: Clostridium difficile; assay: Expected efficacy of antibiotic agents; conditions: expected efficacy against Clostridium difficile
[2] = tested on: Acinetobacter calcoaceticus; assay: Expected efficacy of antibiotic agents; conditions: expected efficacy against Acinetobacter calcoaceticus
[3] = tested on: Salmonella typhi; assay: Expected efficacy of antibiotic agents; conditions: expected efficacy against Salmonella typhi
[4] = tested on: Moraxella catarrhalis; assay: Expected efficacy of antibiotic agents; conditions: expected efficacy against Moraxella catarrhalis
[5] = tested on: Yersinia pestis; conditions: expected efficacy against Yersinia pestis
[6] = tested on: Viridans group streptococci; assay: Expected efficacy of antibiotic agents; conditions: expected efficacy against Viridans group streptococci
[7] = tested on: Pseudomonas aeruginosa; assay: Expected efficacy of antibiotic agents; conditions: expected efficacy against Pseudomonas aeruginosa
[8] = tested on: Shigella dysenteriae; assay: Expected efficacy of antibiotic agents; conditions: expected efficacy against Shigella dysenteriae
[9] = tested on: Citrobacter diversus; assay: Expected efficacy of antibiotic agents; conditions: expected efficacy against Citrobacter diversus
[10] = tested on: Providencia stuartii; assay: Expected efficacy of antibiotic agents; conditions: expected efficacy against Providencia stuartii
[11] = tested on: Morganella morganii; assay: Expected efficacy of antibiotic agents; conditions: expected efficacy against Morganella morganii
[12] = tested on: Klebsiella oxytoca; assay: Expected efficacy of antibiotic agents; conditions: expected efficacy against Klebsiella oxytoca
[13] = tested on: Chlamydia pneumoniae; assay: Expected efficacy of antibiotic agents; conditions: expected efficacy against Chlamydia pneumoniae
[14] = tested on: Bacteroides fragilis; assay: Expected efficacy of antibiotic agents; conditions: expected efficacy against Bacteroides fragilis
[15] = tested on: Haemophilus parainfluenzae; assay: Expected efficacy of antibiotic agents; conditions: expected efficacy against Haemophilus parainfluenzae
[16] = tested on: Neisseria meningitidis; assay: Expected efficacy of antibiotic agents; conditions: expected efficacy against Neisseria meningitidis
[17] = tested on: Enterobacter aerogenes; assay: Expected efficacy of antibiotic agents; conditions: expected efficacy against Enterobacter aerogenes
[18] = tested on: Bordetella pertussis; assay: Expected efficacy of antibiotic agents; conditions: expected efficacy against Bordetella pertussis
[19] = tested on: Vibrio cholerae; assay: Expected efficacy of antibiotic agents; conditions: expected efficacy against Vibrio cholerae
[20] = tested on: Staphylococcus aureus (MSSA); assay: Expected efficacy of antibiotic agents; conditions: expected efficacy against Staphylococcus aureus (MSSA)
[21] = tested on: Corynebacterium urealyticum; assay: Expected efficacy of antibiotic agents; conditions: expected efficacy against Corynebacterium urealyticum
[22] = tested on: Acinetobacter lwoffii; assay: Expected efficacy of antibiotic agents; conditions: expected efficacy against Acinetobacter lwoffii
[23] = tested on: Enterococcus faecalis; assay: Expected efficacy of antibiotic agents; conditions: expected efficacy against Enterococcus faecalis
[24] = tested on: Streptococcus pyogenes; assay: Expected efficacy of antibiotic agents; conditions: expected efficacy against Streptococcus pyogenes
[25] = tested on: Francisella tularensis; conditions: expected efficacy against Francisella tularensis
[26] = tested on: Acinetobacter baumannii; assay: Expected efficacy of antibiotic agents; conditions: expected efficacy against Acinetobacter baumannii
[27] = tested on: Escherichia coli; assay: Expected efficacy of antibiotic agents; conditions: expected efficacy against Escherichia coli
[28] = tested on: Enterococcus faecium; assay: Expected efficacy of antibiotic agents; conditions: expected efficacy against Enterococcus faecium
[29] = tested on: Methicillin resistant staph aureus (MRSA); assay: Expected efficacy of antibiotic agents; conditions: expected efficacy against Methicillin resistant staph aureus (MRSA)
[30] = tested on: Proteus vulgaris; assay: Expected efficacy of antibiotic agents; conditions: expected efficacy against Proteus vulgaris
[31] = tested on: Legionella pneumophila; conditions: expected efficacy against Legionella pneumophila
[32] = tested on: Citrobacter freundii; assay: Expected efficacy of antibiotic agents; conditions: expected efficacy against Citrobacter freundii
[33] = tested on: Mycoplasma pneumoniae; assay: Expected efficacy of antibiotic agents; conditions: expected efficacy against Mycoplasma pneumoniae
[34] = tested on: Peptostreptococcus; assay: Expected efficacy of antibiotic agents; conditions: expected efficacy against Peptostreptococcus
[35] = tested on: Klebsiella (Calymmatobacterium) granulomatis; assay: Expected efficacy of antibiotic agents; conditions: expected efficacy against Klebsiella (Calymmatobacterium) granulomatis
[36] = tested on: Rickettsiae; conditions: expected efficacy against Rickettsiae
[37] = tested on: Serratia marcescens; assay: Expected efficacy of antibiotic agents; conditions: expected efficacy against Serratia marcescens
[38] = tested on: Diphtheroids; assay: Expected efficacy of antibiotic agents; conditions: expected efficacy against Diphtheroids
[39] = tested on: Haemophilus influenzae; assay: Expected efficacy of antibiotic agents; conditions: expected efficacy against Haemophilus influenzae
[40] = tested on: Neisseria gonorrhoeae; assay: Expected efficacy of antibiotic agents; conditions: expected efficacy against Neisseria gonorrhoeae
[41] = tested on: Enterobacter sakazakii; assay: Expected efficacy of antibiotic agents; conditions: expected efficacy against Enterobacter sakazakii
[42] = tested on: Staphylococcus epidermidis; assay: Expected efficacy of antibiotic agents; conditions: expected efficacy against Staphylococcus epidermidis
[43] = tested on: Chlamydia trachomatis; assay: Expected efficacy of antibiotic agents; conditions: expected efficacy against Chlamydia trachomatis
[44] = tested on: Klebsiella pneumoniae; assay: Expected efficacy of antibiotic agents; conditions: expected efficacy against Klebsiella pneumoniae
[45] = tested on: Shigella flexneri; assay: Expected efficacy of antibiotic agents; conditions: expected efficacy against Shigella flexneri
[46] = tested on: Streptococcus pneumoniae; assay: Expected efficacy of antibiotic agents; conditions: expected efficacy against Streptococcus pneumoniae
[47] = tested on: Proteus mirabilis; assay: Expected efficacy of antibiotic agents; conditions: expected efficacy against Proteus mirabilis
[48] = tested on: Campylobacter jejuni; assay: Expected efficacy of antibiotic agents; conditions: expected efficacy against Campylobacter jejuni
[49] = tested on: Shigella boydii; assay: Expected efficacy of antibiotic agents; conditions: expected efficacy against Shigella boydii
[50] = tested on: Shigella sonnei; assay: Expected efficacy of antibiotic agents; conditions: expected efficacy against Shigella sonnei
[51] = tested on: Streptococcus agalactiae; assay: Expected efficacy of antibiotic agents; conditions: expected efficacy against Streptococcus agalactiae
[52] = tested on: Clostridium perfringens; conditions: expected efficacy against Clostridium perfringens
[53] = tested on: Chlamydia psittaci; conditions: expected efficacy against Chlamydia psittaci
[54] = tested on: Haemophilus ducreyi; assay: Expected efficacy of antibiotic agents; conditions: expected efficacy against Haemophilus ducreyi
[55] = tested on: Corynebacterium jeikeium; assay: Expected efficacy of antibiotic agents; conditions: expected efficacy against Corynebacterium jeikeium
[56] = tested on: Enterobacter cloacae; assay: Expected efficacy of antibiotic agents; conditions: expected efficacy against Enterobacter cloacae
[57] = tested on: Providencia rettgeri; assay: Expected efficacy of antibiotic agents; conditions: expected efficacy against Providencia rettgeri
[58] = tested on: Pseudomonas fluorescens; assay: Expected efficacy of antibiotic agents; conditions: expected efficacy against Pseudomonas fluorescens
[59] = tested on: Brucella species; conditions: expected efficacy against Brucella species

Which results are given for `CO/N=C(\C(=O)N[C@@H]1C(=O)N2C(C(=O)O)=C(CSc3nc(=O)c(=O)[nH]n3C)CS[C@H]12)c1csc(N)n1` [Ceftriaxone, ceftriaxone]?
Efficacy [1]: no; Efficacy [2]: no; Efficacy [3]: yes; Efficacy [4]: yes; Efficacy [5]: no; Efficacy [6]: yes; Efficacy [7]: no; Efficacy [8]: yes; Efficacy [9]: yes; Efficacy [10]: yes; Efficacy [11]: yes; Efficacy [12]: yes; Efficacy [13]: no; Efficacy [14]: yes; Efficacy [15]: yes; Efficacy [16]: yes; Efficacy [17]: yes; Efficacy [18]: no; Efficacy [19]: no; Efficacy [20]: yes; Efficacy [21]: no; Efficacy [22]: no; Efficacy [23]: no; Efficacy [24]: yes; Efficacy [25]: no; Efficacy [26]: no; Efficacy [27]: yes; Efficacy [28]: no; Efficacy [29]: no; Efficacy [30]: yes; Efficacy [31]: no; Efficacy [32]: yes; Efficacy [33]: no; Efficacy [34]: yes; Efficacy [35]: yes; Efficacy [36]: no; Efficacy [37]: yes; Efficacy [38]: no; Efficacy [39]: yes; Efficacy [40]: yes; Efficacy [41]: yes; Efficacy [42]: yes; Efficacy [43]: no; Efficacy [44]: yes; Efficacy [45]: yes; Efficacy [46]: yes; Efficacy [47]: yes; Efficacy [48]: no; Efficacy [49]: yes; Efficacy [50]: yes; Efficacy [51]: yes; Efficacy [52]: yes; Efficacy [53]: no; Efficacy [54]: yes; Efficacy [55]: no; Efficacy [56]: yes; Efficacy [57]: yes

How did the Efficacy [1] turn out when Colistimethate was run?
The Efficacy was “no”.

And the Efficacy [4]?
The Efficacy was “no”.

And the Efficacy [6]?
Its Efficacy is “no”.

What about the Efficacy [7] of the same compound?
The Efficacy was “yes”.

And the Efficacy [10]?
Its Efficacy is “no”.

And the Efficacy [12]?
The Efficacy was “yes”.

What about the Efficacy [13] of the same compound?
The Efficacy was “no”.

And the Efficacy [14]?
Its Efficacy is “no”.

What about the Efficacy [15] of the same compound?
The Efficacy was “no”.

What about the Efficacy [16] of the same compound?
Its Efficacy is “no”.

What about the Efficacy [17] of the same compound?
Its Efficacy is “yes”.

And the Efficacy [18]?
Its Efficacy is “no”.

What about the Efficacy [19] of the same compound?
Its Efficacy is “no”.

And the Efficacy [20]?
The Efficacy was “no”.

And the Efficacy [58]?
Its Efficacy is “yes”.

What about the Efficacy [21] of the same compound?
The Efficacy was “no”.

And the Efficacy [23]?
The Efficacy was “no”.

What about the Efficacy [24] of the same compound?
The Efficacy was “no”.

What about the Efficacy [27] of the same compound?
The Efficacy was “yes”.

And the Efficacy [28]?
The Efficacy was “no”.

And the Efficacy [29]?
Its Efficacy is “no”.

What about the Efficacy [30] of the same compound?
The Efficacy was “no”.

What about the Efficacy [31] of the same compound?
The Efficacy was “no”.

What about the Efficacy [33] of the same compound?
The Efficacy was “no”.

What about the Efficacy [34] of the same compound?
The Efficacy was “no”.

And the Efficacy [35]?
Its Efficacy is “yes”.

What about the Efficacy [37] of the same compound?
The Efficacy was “no”.

And the Efficacy [38]?
Its Efficacy is “no”.

What about the Efficacy [40] of the same compound?
The Efficacy was “no”.

And the Efficacy [41]?
The Efficacy was “yes”.

And the Efficacy [42]?
The Efficacy was “no”.

What about the Efficacy [43] of the same compound?
Its Efficacy is “no”.

And the Efficacy [44]?
The Efficacy was “yes”.

What about the Efficacy [46] of the same compound?
Its Efficacy is “no”.

What about the Efficacy [47] of the same compound?
Its Efficacy is “no”.

And the Efficacy [59]?
Its Efficacy is “no”.

And the Efficacy [51]?
The Efficacy was “no”.

What about the Efficacy [53] of the same compound?
Its Efficacy is “no”.

And the Efficacy [55]?
Its Efficacy is “no”.

And the Efficacy [56]?
Its Efficacy is “yes”.

What about the Efficacy [57] of the same compound?
The Efficacy was “no”.
